This is an account of results in patent US20170247335A1, “FLUORINATED PYRIDAZIN-3-ONES FOR THE USE THEREOF IN THE TREATMENT OF LUNG DISEASES” (UNIVERSITE DE REIMS CHAMPAGNE-ARDENNE, priority 2014, published 2017).

Holding throughout (assay type): biochemical
Assay [1] has as its system PDE4 (recombinant human phosphodiesterases PDE4B2 and PDE4D). The assay is described as follows: PDE4 enzyme inhibition, colorimetric cAMP cleavage test (5'-nucleotidase, Biomol Green). The following applies: for IC50: average of three independent determinations, non-linear regression, 60 min incubation, 2% DMSO, read-out: CI50 (inhibitory concentration 50). As to the method:
The activity of the PDE1 and PDE10 enzymes was also monitored.
(§1) The principle of the test is based on the cleavage of AMPc by the enzymes phosphodiesterases. The nucleotide-5′ which is sorted out during the reaction is itself cleaved by an enzyme 5′-nucleotidase into a nucleoside and a phosphate, the latter being quantified by using the reagent Biomol Green™.
(§2) The reaction is stopped by adding an amount of 100 microliters of the reagent Biomol Green™ and the plate is incubated for further 30 mins in order to allow development of the colour before reading the absorbance by means of a micro-plate reader.
The CI50s which were calculated represent the average value of three determinations which were achieved independently of each other.
A non-specific inhibitor of the PDE enzymes, 3-isobutyl-1-methylxanthin (IBMX) corresponds to the control.

The next assay deals with PDE1. Description: PDE1 enzyme inhibition, same colorimetric test. The following applies: at a concentration of 50 μM of compound. The procedure: (§3) In order to evaluate the action of the compounds (Ic), (Ig) and (Ii) according to the invention, the activity of different sub-types of phosphodiesterases, either of type 4 or not, was tested in vitro by using a kit adapted to the recombinant isoforms of human phosphodiesterases PDE4B2 and PDE4D coded by Escherichia coli. The activity of the PDE1 and PDE10 enzymes was also monitored.
as §1
(§4) The PDE enzymes are incubated on microplates in the presence of AMPc, 5′-nucleotidase, in the presence of an inhibitor, more particularly corresponding to the compound (Ic), (Ig) or (Ii) according to the invention, or in the absence of any inhibitor (control), and this for a period of the order of 60 mins.
as §2
The study of the inhibition of the PDE enzymes by the compound (Ic), (Ig) or (Ii) according to the invention was carried out by testing […] different concentrations (500 μM, 50 μM, 5 μM and 0.5 μM) of said compounds (Ic), (Ig) or (Ii).

The next assay addresses PDE10 (Homo sapiens, UniProt Q9Y233). Description: PDE10 enzyme inhibition, same colorimetric test. The following applies: read-out: percentage of inhibition towards PDE10. As to the method:
as §3, §1, §4
The reaction is stopped by adding an amount of 100 microliters of the reagent Biomol Green™ and the plate is incubated for further 30 mins in order to allow development of the colour before reading the absorbance by means of a micro-plate reader. […]

[2] abbreviates: at a concentration of 50 μM of compound.

Chain of PDE10 (Q9Y233 whole entry): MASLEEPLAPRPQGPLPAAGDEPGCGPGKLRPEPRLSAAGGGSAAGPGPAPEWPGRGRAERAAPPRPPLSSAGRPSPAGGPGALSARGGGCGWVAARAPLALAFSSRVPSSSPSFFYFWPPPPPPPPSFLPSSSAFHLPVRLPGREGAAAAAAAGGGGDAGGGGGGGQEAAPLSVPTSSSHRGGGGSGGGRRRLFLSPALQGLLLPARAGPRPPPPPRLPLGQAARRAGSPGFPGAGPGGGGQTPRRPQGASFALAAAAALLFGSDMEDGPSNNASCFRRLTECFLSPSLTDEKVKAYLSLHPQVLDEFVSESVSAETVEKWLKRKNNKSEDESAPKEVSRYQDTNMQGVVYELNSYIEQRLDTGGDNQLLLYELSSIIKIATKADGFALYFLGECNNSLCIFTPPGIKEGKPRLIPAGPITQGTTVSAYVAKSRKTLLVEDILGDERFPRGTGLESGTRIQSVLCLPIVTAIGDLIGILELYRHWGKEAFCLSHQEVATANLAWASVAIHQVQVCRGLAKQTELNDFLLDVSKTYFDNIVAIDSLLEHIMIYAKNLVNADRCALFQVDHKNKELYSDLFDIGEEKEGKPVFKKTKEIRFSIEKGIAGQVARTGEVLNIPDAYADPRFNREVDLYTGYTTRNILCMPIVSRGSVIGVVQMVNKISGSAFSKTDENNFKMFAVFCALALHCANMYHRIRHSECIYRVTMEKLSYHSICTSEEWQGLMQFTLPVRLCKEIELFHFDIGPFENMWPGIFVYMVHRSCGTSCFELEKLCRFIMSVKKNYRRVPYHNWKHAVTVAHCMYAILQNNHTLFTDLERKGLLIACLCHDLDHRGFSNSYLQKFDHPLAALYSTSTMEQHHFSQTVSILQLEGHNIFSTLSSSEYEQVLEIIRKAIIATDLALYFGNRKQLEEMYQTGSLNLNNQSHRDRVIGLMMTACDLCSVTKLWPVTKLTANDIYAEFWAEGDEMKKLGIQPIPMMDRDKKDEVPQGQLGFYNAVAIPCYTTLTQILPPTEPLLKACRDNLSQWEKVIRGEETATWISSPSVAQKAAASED

Turning to `Cc1ccc(-c2cc(C(F)(F)F)c(=O)n(-c3ccccc3)n2)cc1` [compound (Ig), 4-(trifluoromethyl)-2-phenyl-6-(p-tolyl)pyridazin-3(2H)-one], the “inhibition percentage of PDE4” value in assay [1] (setting [2]) came out at 45%. The IC50 in assay [1] is 15 µM. The “inhibition of PDE1” value in the assay on PDE1 amounted to 0%.
With `COc1ccc(-c2cc(C(F)(F)F)c(=O)[nH]n2)cc1OC` [compound (Ic), 4-(trifluoromethyl)-6-(3′,4′-dimethoxyphenyl)pyridazin-3(2H)-one], in assay [1] (setting [2]), the “inhibition percentage of PDE4” value turned out to be 74%. Besides, in assay [1], the IC50 amounted to 8.1 µM. For the same compound, the “inhibition of PDE1” value in the assay on PDE1 was 0%.
As a reminder, the inhibition is the percentage by which the read-out fell short of the control. With `COc1cc(-c2cc(C(F)(F)F)c(=O)[nH]n2)ccc1OC(F)F` [compound (Ii), 6-(4′-(difluoromethoxy)-3′-methoxy-phenyl)-4-(trifluoromethyl)pyridazin-3(2H)-one], the “inhibition percentage of PDE4” value in assay [1] (at a 5 μM concentration of compound) is 56%. The IC50 in assay [1] stood at 0.25 µM. Also, the “inhibition of PDE1” value in the assay on PDE1 came out at 0%. Besides, the inhibition at 50 µM on PDE10 turned out to be 9%.
